Source: PMC10347550, “Cyclic Ruthenium-Peptide Conjugates as Integrin-Targeting Phototherapeutic Prodrugs for the Treatment of Brain Tumors” (Journal of the American Chemical Society, 2023)
Where two headings read alike, the source gives them in different places.

What was measured:
[1] = Nanoaggregation in Opti-MEM by DLS and TEM; type: physicochemical; conditions: dark; for DLS size distribution: 24 h
Procedure: DLS was used to determine the distribution of particles in complex solutions (50 μM) in Opti-MEM (Gibco complete medium 11058-021, supplemented with 0.2% v/v penicillin/streptomycin (P/S), and 1% v/v glutamine) with or without 2.5% fetal calf serum (FCS) proteins via a ZEN1600 Zetasizer Nano instrument (Malvern Instruments Limited) operated with a 633 nm laser.
The TEM experiments were carried out with a TEM JEOL 1010:100 kV transmission electron microscope using a Formvar/carbon-coated copper grid (Polysciences Inc.). For the preparation of samples, a 1 mM stock aqua solution was diluted to 50 μM by Opti-MEM, after which, each drop (15 μL) of the complex solution was deposited on a parafilm (Bemis, HS234526C). The grids (Electron Microscopy Sciences, 71137) were placed on top of the drops for 5 min and then the excess liquid on the grid was removed with filter paper and air dried for 2 h for the TEM measurement. The TEM measurements were carried out under vacuum conditions.

[2] = test system: U87MG cells; experiment: 2D cytotoxicity assay, 24 h DLI & no wash, SRB endpoint; type: cell-based, human; conditions: for EC50: U87MG 2D monolayer, not washed, SRB at 96 h, n = 3; for PI (EC50,dark/EC50,light): U87MG
Procedure: (§1) For each complex, two identical plates were prepared, one of which was irradiated with light, while the other was used as a dark control. […] Finally, at t = 96 h, 100 μL of cold trichloroacetic acid (10% w/v) was added to each well to fix the cells, and all plates were then transferred to a 4 °C refrigerator for 48 h before performing an SRB cell quantification endpoint assay.[72] Trichloroacetic acid was first removed and each plate was gently washed with demi water 3–5 times. Then, each well was dried in the air, and 100 μL of 0.6% SRB solution (0.6% w/v in 1% v/v acetic acid/H2O solution) was added into each well where it was allowed to stain for 30 min. Then, the plates were washed 3–5 times using an acetic acid solution (1% v/v). Once the plate was washed it was allowed to dry overnight. Then, 200 μL of 10 mM Tris base buffer was added to each well and the plate was allowed to sit on an orbital shaker for 0.5–16 h. After mixing, the absorbance of each well was determined by an M1000 Tecan Reader, reading at 510 nm. All experiments were conducted in independent biological triplicate. The obtained data were analyzed with Graphpad Prism 5 using the dose–response two-parameter Hill slope equation (eq 1) to obtain the half-maximal effective concentrations EC50 (defined as the concentration of drug that kills 50% of cells, compared to the untreated control). [drawing 1] 1

[3] = test system: PC-3 cells; experiment: as above; type: cell-based, human; conditions: for EC50: PC-3 2D monolayer, not washed, SRB at 96 h, n = 3
Procedure: as §1

[4] = test system: A549 cells; experiment: as above; type: cell-based, human; conditions: for EC50: A549 2D monolayer, not washed, n = 3
Procedure: as §1

[5] = test system: U87MG cells; experiment: Intracellular ROS generation, CellROX Deep Red, flow cytometry; conditions: 15 µM, 24 h
Procedure: The generation of ROS (reactive oxygen species) in U87MG cells was measured using a ROS deep red fluorescence indicator (Abcam, ab186029). U87MG (1 × 10^5, 1 mL) were seeded into 12-well plates and incubated for 24 h in the dark under normoxia. The cells were then treated with 15 μM complexes with Opti-MEM, Λ-[1]Cl2, Δ-[1]Cl2, cisplatin, or Rose Bengal. There are two groups for each drug (dark + light). After 24 h of incubation under normoxia, the plate was washed with cold PBS once, and cells were trypsinized, harvested, and then resuspended in 150 μL of PBS. The cell suspension from the centrifuge tubes was transferred to 96-round-bottom well plates (Thermo Scientific, 268200), and the light group was irradiated for 20 min with 520 nm light (dose = 13.1 J/cm^2). After which, the Cellular ROS Deep Red dye (abcam, ab186029) was added with 1000× dilution, and cells were further stained for 1 h. Untreated cells were maintained as negative controls, whereas a 250 μM tBHP solution in Opti-MEM complete was administered as a positive control for ROS. The levels of intracellular ROS were then determined using the CytoFLEX flow cytometer. Forward versus side scatter (FSC vs SSC) gating was used to select the population of interest and avoid cell debris. A forward scatter height (FSC-H) vs forward scatter area (FSC-A) gating was used for doublet exclusion. Fluorescence measurements were acquired with the APC-A (638 nm excitation, 660/10 nm emission) channel given the known excitation/emission wavelengths of the ROS Deep Red dye (650/675 nm, respectively). All flow cytometry data were processed using FlowLogic 8.5 software.

[6] = test system: MCF7 cells; experiment: Cellular Ru uptake by ICP-MS; type: cell-based, human; conditions: dark, 6 h, triplicate wells, ± SEM
Procedure: (§2) U87MG cells (6000), PC-3 cells (5000), and MCF7 cells (8000) were seeded in 96-well plates, each well containing 100 μL of Opti-MEM. After 24 h, 12.5 μM drugs dissolved in Opti-MEM were added to each well and the plates were incubated in a normoxic or hypoxic incubator for 6 h. After that, the drug-containing medium was removed from each well, which was washed with PBS buffer once. Then, cells were stained by Nuclear Blue (Invitrogen, R37605) for 30 min to stain all nuclei (2 drops/mL medium). After this, the dye was thereafter removed and replaced with fresh medium. The entire well was imaged with 10× objective magnification and 7 × 6 montage using epifluorescence on a Nikon TiE2000 widefield microscope with a perfect focus system and automated xy-stage. The cell number of every well was analyzed by counting the nuclei using Image-Pro Analyzer 7.0. Thereafter, the medium was removed and the cells were digested by adding 100 μL of 65% HNO3 for 30 min at room temperature. The cell lysates were transferred into a 96-deep well plate (Eppendorf, E951033502), followed by the addition of 0.9 mL of MilliQ water into each well, and the plate was then mixed well with a 1000 μL Eppendorf pipette.
(§3) The ruthenium concentration was measured in each sample by ICP-MS (NexION 2000, PerkinElmer), providing the metal content in each well in ppb. Combining the cell numbers and Ru uptake, averaging over technical triplicates, the ruthenium uptake values were finally expressed in μg Ru/million cells.

[7] = test system: U87MG cells; experiment: Cellular Ru uptake by ICP-MS; type: cell-based, human; conditions: dark, 6 h, triplicate wells, ± SEM
Procedure: as §2, §3

[8] = test system: PC-3 cells; experiment: Cellular Ru uptake by ICP-MS; type: cell-based, human; conditions: dark, 6 h, triplicate wells, ± SEM
Procedure: as §2, §3

[9] = 1% O2, dark, 24 h treatment, read-out: EC50,dark
[10] = 1% O2, 520 nm, 7.22 mW/cm^2, 13.1 J/cm^2, 30 min, read-out: EC50,light
[11] = 21% O2, dark, 24 h treatment, read-out: EC50,dark
[12] = 21% O2, 520 nm, 10.9 mW/cm^2, 13.1 J/cm^2, 20 min, read-out: EC50,light
[13] = 1% O2, dark, 24 h treatment, SRB at 96 h, read-out: EC50,dark
[14] = 1% O2, 520 nm, 7.22 mW/cm^2, 13.1 J/cm^2, 30 min, SRB at 96 h, read-out: EC50,light
[15] = 21% O2, dark, 24 h treatment, SRB at t = 96 h, read-out: EC50,dark
[16] = 21% O2, 24 h treatment, 520 nm, 10.9 mW/cm^2, 13.1 J/cm^2, 20 min, SRB at 96 h, read-out: EC50,light

Q: For “[Ru(Ph2phen)2(κ^S,κ^N-(Ac-MRGDH-NH2))]Cl2 (sidechain bridge or staple) [Δ-[1]Cl2] [cyclic ruthenium-peptide conjugate, Ac-MRGDH-NH2 coordinated via Met S and His N]”, which DLS size distribution ([1]; 50 μM in Opti-MEM with 2.5% FCS) is on record?
A: around 100 nm

Q: And the DLS size distribution ([1]; 50 μM in Opti-MEM without FCS)?
A: above 1 μm

Q: And the EC50 [2, 9]?
A: 42.7 µM

Q: And the EC50 [2, 10]?
A: 18.8 µM

Q: And the EC50 [2, 11]?
A: 39.5 µM

Q: And the EC50 [2, 12]?
A: 3.6 µM

Q: What about the “PI (EC50,dark/EC50,light)” value ([2]; 1% O2) of the same substance?
A: 2.3

Q: What about the “PI (EC50,dark/EC50,light)” value ([2]; 21% O2) of the same substance?
A: 11

Q: And the EC50 [3, 9]?
A: 61.4 µM

Q: And the EC50 [3, 10]?
A: 50.7 µM

Q: What about the EC50 [3, 11] of the same substance?
A: 52 µM

Q: What about the EC50 [3, 12] of the same substance?
A: 6 µM

Q: What about the “PI (EC50,dark/EC50,light)” value ([3]; PC-3, 1% O2) of the same substance?
A: 1.2

Q: And the “PI (EC50,dark/EC50,light)” value ([3]; PC-3, 21% O2)?
A: 9

Q: What about the EC50 [4, 13] of the same substance?
A: 50.1 µM

Q: And the EC50 [4, 14]?
A: 17.3 µM

Q: And the EC50 [4, 15]?
A: 72.5 µM

Q: And the EC50 [4, 16]?
A: 4.3 µM

Q: What about the “PI (EC50,dark/EC50,light)” value ([4]; A549, 1% O2) of the same substance?
A: 2.9

Q: And the “PI (EC50,dark/EC50,light)” value ([4]; A549, 21% O2)?
A: 17

Q: And the “Ratio of L/D (light/dark ROS ratio)” value [5]?
A: 8.24

Q: What about the Ru accumulation ([6]; MCF7, hypoxia 1% O2, 12.5 µM) of the same substance?
A: 0.31 ± 0.01 µg Ru/million cells

Q: What about the Ru accumulation ([6]; MCF7, normoxia 21% O2, 12.5 µM) of the same substance?
A: 0.21 ± 0.01 µg Ru/million cells

Q: What about the Ru accumulation ([7]; hypoxia 1% O2, 12.5 µM) of the same substance?
A: 0.78 ± 0.01 µg Ru/million cells

Q: What about the Ru accumulation ([7]; normoxia 21% O2, 12.5 µM) of the same substance?
A: 0.73 ± 0.01 µg Ru/million cells

Q: And the Ru accumulation ([8]; PC-3, hypoxia 1% O2, 12.5 µM)?
A: 0.63 ± 0.02 µg Ru/million cells

Q: What about the Ru accumulation ([8]; PC-3, normoxia 21% O2, 12.5 µM) of the same substance?
A: 0.51 ± 0.01 µg Ru/million cells

Q: With “[Ru(Ph2phen)2(κ^S,κ^N-(Ac-MRGDH-NH2))]Cl2 (sidechain bridge or staple) [Λ-[1]Cl2] [cyclic ruthenium-peptide conjugate, Ac-MRGDH-NH2 coordinated via Met S and His N]” as the substance, how does the “nanoparticle formation (DLS)” value ([1]; 50 μM in Opti-MEM with 2.5% FCS, 24 h (Figure S20)) read?
A: Nanoparticles of similar size were observed

Q: And the EC50 [2, 9]?
A: 41.4 µM

Q: What about the EC50 [2, 10] of the same substance?
A: 19 µM

Q: And the EC50 [2, 11]?
A: 41.6 µM

Q: What about the EC50 [2, 12] of the same substance?
A: 3.8 µM

Q: What about the “PI (EC50,dark/EC50,light)” value ([2]; 1% O2) of the same substance?
A: 2.2

Q: What about the EC50 [3, 9] of the same substance?
A: 74.3 µM

Q: What about the EC50 [3, 10] of the same substance?
A: 46.5 µM

Q: And the EC50 [3, 11]?
A: 66.6 µM

Q: And the EC50 [3, 12]?
A: 5.3 µM

Q: And the “PI (EC50,dark/EC50,light)” value ([3]; PC-3, 1% O2)?
A: 1.5

Q: And the “PI (EC50,dark/EC50,light)” value ([3]; PC-3, 21% O2)?
A: 12

Q: What about the EC50 [4, 13] of the same substance?
A: 51 µM

Q: What about the EC50 [4, 14] of the same substance?
A: 19 µM

Q: What about the EC50 [4, 15] of the same substance?
A: 66.8 µM

Q: And the EC50 [4, 16]?
A: 5 µM

Q: And the “PI (EC50,dark/EC50,light)” value ([4]; A549, 1% O2)?
A: 2.7

Q: And the “PI (EC50,dark/EC50,light)” value ([4]; A549, 21% O2)?
A: 13

Q: What about the “Ratio of L/D (light/dark ROS ratio)” value [5] of the same substance?
A: 7.03

Q: What about the Ru accumulation ([6]; MCF7, hypoxia 1% O2, 12.5 µM) of the same substance?
A: 0.31 ± 0.01 µg Ru/million cells

Q: And the Ru accumulation ([6]; MCF7, normoxia 21% O2, 12.5 µM, listed as L-[1]Cl2)?
A: 0.25 ± 0.01 µg Ru/million cells

Q: And the Ru accumulation ([7]; hypoxia 1% O2, 12.5 µM, listed as L-[1]Cl2)?
A: 0.84 ± 0.01 µg Ru/million cells

Q: What about the Ru accumulation ([7]; normoxia 21% O2, 12.5 µM) of the same substance?
A: 0.74 ± 0.01 µg Ru/million cells

Q: And the Ru accumulation ([8]; PC-3, hypoxia 1% O2, 12.5 µM, listed as L-[1]Cl2)?
A: 0.68 ± 0.01 µg Ru/million cells

Q: What about the Ru accumulation ([8]; PC-3, normoxia 21% O2, 12.5 µM, listed as L-[1]Cl2) of the same substance?
A: 0.55 ± 0.03 µg Ru/million cells
